Results: patent publication US4677100A, “Cephalosporin derivatives” (Banyu Pharmaceutical Co., Ltd., priority 1984, dated 1987)
Values after ≈ are worked out from the molar mass of the structure shown. Like-named read-outs stand apart in the source and are kept apart here.

What was measured:
[1] = test system: Gram-positive bacteria and Gram-negative bacteria; assay: antibacterial activity, general statement; format: cell-based; conditions: sensitive and resistant bacteria
Procedure: (§1) The minimum inhibitory concentrations (MIC: μg/ml) of the compounds of the present invention against various microorganisms were measured by an agar plate dilution method (inoculum size: 10^6 CFU/ml) by using Sensitivity Disk Agar (Nissui) in comparison with Cefotaxime and Ceftazidime as comparative compounds.

[2] = test system: P. aeruginosa AK109; assay: MIC, agar plate dilution method; format: cell-based, Pseudomonas aeruginosa; conditions: for MIC: Pseudomonas aeruginosa, P. aeruginosa AK109, 10^6 CFU/ml, Sensitivity Disk Agar, read-out: Minimum Inhibitory Concentration
Procedure: as §1

[3] = test system: P. aeruginosa AKR17; assay: MIC, agar plate dilution method; format: cell-based, Pseudomonas aeruginosa; conditions: for MIC: Pseudomonas aeruginosa, P. aeruginosa AKR17, 10^6 CFU/ml, Sensitivity Disk Agar, read-out: Minimum Inhibitory Concentration
Procedure: as §1

[4] = test system: P. cepacia 23; assay: MIC, agar plate dilution method; format: cell-based, Pseudomonas cepacia; conditions: for MIC: Burkholderia cepacia, P. cepacia 23, 10^6 CFU/ml, Sensitivity Disk Agar, read-out: Minimum Inhibitory Concentration
Procedure: as §1

[5] = test system: E. coli CSH2; assay: MIC, agar plate dilution method; format: cell-based; conditions: Escherichia coli, 10^6 CFU/ml, Sensitivity Disk Agar, read-out: Minimum Inhibitory Concentration
Procedure: as §1

[6] = test system: P. vulgaris OB1043; assay: MIC, agar plate dilution method; format: cell-based; conditions: Proteus vulgaris; P. vulgaris OB1043; 10^6 CFU/ml; Sensitivity Disk Agar; read-out: Minimum Inhibitory Concentration
Procedure: as §1

[7] = test system: P. mirabilis JY10; assay: MIC, agar plate dilution method; format: cell-based; conditions: Proteus mirabilis; P. mirabilis JY10; 10^6 CFU/ml; Sensitivity Disk Agar; read-out: Minimum Inhibitory Concentration
Procedure: as §1

[8] = test system: E. coli NIHJJC-2; assay: MIC, agar plate dilution method; format: cell-based; conditions: Escherichia coli, NIHJJC2; E. coli NIHJJC-2; 10^6 CFU/ml; Sensitivity Disk Agar; read-out: Minimum Inhibitory Concentration
Procedure: as §1

[9] = test system: E. coli W3630/Rms213; assay: MIC, agar plate dilution method; format: cell-based; conditions: for MIC: Escherichia coli, W3630/RMS213, read-out: Minimum Inhibitory Concentration
Procedure: as §1

[10] = test system: S. aureus JS-1; assay: MIC, agar plate dilution method; format: cell-based; conditions: Staphylococcus aureus, JS1; S. aureus JS-1; 10^6 CFU/ml; Sensitivity Disk Agar; read-out: Minimum Inhibitory Concentration
Procedure: as §1

[11] = test system: S. aureus NIHJJC-1; assay: MIC, agar plate dilution method; format: cell-based; conditions: Staphylococcus aureus, NIHJJC1; S. aureus NIHJJC-1; 10^6 CFU/ml; Sensitivity Disk Agar; read-out: Minimum Inhibitory Concentration
Procedure: as §1

[12] = test system: S. marcescens No. 16-2; assay: MIC, agar plate dilution method; format: cell-based; conditions: Serratia marcescens, NO.162; S. marcescens No. 16-2; 10^6 CFU/ml; Sensitivity Disk Agar; read-out: Minimum Inhibitory Concentration
Procedure: as §1

[13] = test system: C. freundii No. 7; assay: MIC, agar plate dilution method; format: cell-based; conditions: Citrobacter freundii; C. freundii No. 7; 10^6 CFU/ml; Sensitivity Disk Agar; read-out: Minimum Inhibitory Concentration
Procedure: as §1

[14] = test system: K. pneumoniae No. 42; assay: MIC, agar plate dilution method; format: cell-based; conditions: Klebsiella pneumoniae; K. pneumoniae No. 42; 10^6 CFU/ml; Sensitivity Disk Agar; read-out: Minimum Inhibitory Concentration
Procedure: as §1

[15] = test system: A. calcoaceticus No. 14; assay: MIC, agar plate dilution method; format: cell-based; conditions: Acinetobacter calcoaceticus; for MIC: A. calcoaceticus No. 14, 10^6 CFU/ml, Sensitivity Disk Agar, read-out: Minimum Inhibitory Concentration
Procedure: as §1

[16] = test system: E. coli C/Rms149; assay: MIC, agar plate dilution method; format: cell-based; conditions: Escherichia coli, read-out: Minimum Inhibitory Concentration
Procedure: as §1

[17] = test system: E. coli CSH; assay: MIC, agar plate dilution method; format: cell-based; conditions: for MIC: Escherichia coli, read-out: Minimum Inhibitory Concentration
Procedure: as §1

[18] = test system: E. cloaceae Nek 39; assay: MIC, agar plate dilution method; format: cell-based; conditions: E. cloaceae Nek 39; 10^6 CFU/ml; Sensitivity Disk Agar; read-out: Minimum Inhibitory Concentration
Procedure: as §1

[19] = test system: E. coli W3630/Rms212; assay: MIC, agar plate dilution method; format: cell-based; conditions: for MIC: Escherichia coli, W3630/RMS212, read-out: Minimum Inhibitory Concentration
Procedure: as §1

[20] = test system: E. coli ML1410/Rte16; assay: MIC, agar plate dilution method; format: cell-based; conditions: Escherichia coli, ML1410/RTE16, read-out: Minimum Inhibitory Concentration
Procedure: as §1

[21] = test system: P. vulgaris No. 33; assay: MIC, agar plate dilution method; format: cell-based; conditions: Proteus vulgaris; P. vulgaris No. 33; 10^6 CFU/ml; Sensitivity Disk Agar; read-out: Minimum Inhibitory Concentration
Procedure: as §1

[22] = test system: P. maltophilia IID 1275; assay: MIC, agar plate dilution method; format: cell-based, Pseudomonas maltophilia; conditions: for MIC: Stenotrophomonas maltophilia, IID1275, P. maltophilia IID 1275, 10^6 CFU/ml, Sensitivity Disk Agar, read-out: Minimum Inhibitory Concentration
Procedure: as §1

[23] = test system: Gram-positive bacteria and Gram-negative bacteria; conditions: background of the art; cited from earlier work
[24] = test system: Gram-negative bacteria; conditions: background of the art; cited from earlier work
[25] = test system: Gram-positive bacteria; conditions: background of the art; cited from earlier work

SMILES | MIC [2] | MIC [3] | MIC [4] | MIC [5] | MIC [6] | MIC [7] | MIC [8] | MIC [9] | MIC [10] | MIC [11] | MIC [12] | MIC [13] | MIC [14] | MIC [15] | MIC [16] | MIC [17] | MIC [18] | MIC [19] | MIC [20] | MIC [21] | also measured
C[N+]1(CC2=C(C(=O)[O-])N3C(=O)C(NC(=O)C(=NOC4(C(=O)O)CCCC4)c4csc(N)n4)C3SC2)Cc2cc(O)c(O)cc2C1 (stereo not drawn) [Ex. 12-C, 7-[(Z)-2-(2-aminothiazol-4-yl)-2-(1-carboxy-1-cyclopentyloxyimino)acetamido]-3-(5,6-dihydroxy-2-methyl-2-isoindolinium)methyl-3-cephem-4-carbcxylate] | ≤ 0.05 µg/mL | 0.1 µg/mL (≈ 0.152 µM) | ≤ 0.05 µg/mL | 0.1 µg/mL (≈ 0.152 µM) | ≤ 0.05 µg/mL | ≤ 0.05 µg/mL | ≤ 0.05 µg/mL | ≤ 0.05 µg/mL | > 25 µg/mL | 25 µg/mL (≈ 38 µM) | 0.39 µg/mL (≈ 0.592 µM) | 1.56 µg/mL (≈ 2.37 µM) | 0.1 µg/mL (≈ 0.152 µM) | 0.2 µg/mL (≈ 0.304 µM) | ≤ 0.05 µg/mL | 0.1 µg/mL (≈ 0.152 µM) | 0.1 µg/mL (≈ 0.152 µM) | ≤ 0.05 µg/mL | ≤ 0.05 µg/mL | 0.1 µg/mL (≈ 0.152 µM) | antibacterial activity (in words) [1]: particularly strong antibacterial activities; antibacterial activity relative to the compound of Reference Example ([2]; Pseudomonas aeruginosa AK109): at least 16 times; antibacterial activity relative to the compound of Reference Example ([3]; Pseudomonas aeruginosa AKR-17, resistant to all cephalosporins including Ceftazidime): at least 32 times; antibacterial activity relative to the compound of Reference Example ([4]; Pseudomonas cepacia 23): at least 32 times; antibacterial activity relative to the compound of Reference Example [15]: at least 32 times; antibacterial activity relative to the compound of Reference Example ([22]; Pseudomonas maltophilia resistant to all cephalosporins): at least twice as strong; MIC [22]: 6.25 µg/mL (≈ 9.49 µM)
CO/N=C(\C(=O)N[C@@H]1C(=O)N2C(C(=O)O)=C(COC(C)=O)CS[C@H]12)c1csc(N)n1 [Cefotaxime, reference compound] | 6.25 µg/mL (≈ 13.7 µM) | > 25 µg/mL | 3.12 µg/mL (≈ 6.85 µM) | ≤ 0.05 µg/mL | 0.39 µg/mL (≈ 0.856 µM) | ≤ 0.05 µg/mL | ≤ 0.05 µg/mL | 0.2 µg/mL (≈ 0.439 µM) | 6.25 µg/mL (≈ 13.7 µM) | 0.78 µg/mL (≈ 1.71 µM) | 6.25 µg/mL (≈ 13.7 µM) | 0.39 µg/mL (≈ 0.856 µM) | ≤ 0.05 µg/mL | 25 µg/mL (≈ 54.9 µM) | ≤ 0.05 µg/mL | 0.1 µg/mL (≈ 0.22 µM) | 0.78 µg/mL (≈ 1.71 µM) | 0.1 µg/mL (≈ 0.22 µM) | ≤ 0.05 µg/mL | ≤ 0.05 µg/mL | antibacterial activity (in words) [23]: excellent antibacterial activities; antibacterial activity (in words) [24]: excellent activities; antibacterial activity (in words) [25]: relatively poor antibacterial activities; Minimum Inhibitory Concentration ([9]; E. coli W3630/Rms213, 10^6 CFU/ml, Sensitivity Disk Agar): 0.20 µg/mL; Minimum Inhibitory Concentration ([17]; E. coli CSH, 10^6 CFU/ml, Sensitivity Disk Agar): 0.10 µg/mL; Minimum Inhibitory Concentration ([19]; E. coli W3630/Rms212, 10^6 CFU/ml, Sensitivity Disk Agar): 0.10 µg/mL; MIC [22]: > 25 µg/mL
